Data from patent publication US20220280557A1, “Metabolic Reprogramming of Immune Cells for the Treatment or Prevention of Diseases and Disorders” (Arizona Board of Regents on behalf of Arizona State …, priority 2019, published 2022).

What was measured:
[1] = Release of PFK15 from polymeric particles (plate reader); format: physicochemical; conditions: from paKG polymeric particles
Protocol: (§1) Another set of polymeric particles were generated using water-oil-water emulsion encapsulating bovine collagen type II (bc2—antigen) in the presence of PFK15 in the particles. Percentage encapsulation efficiency (EE) and percentage loading (μg of drug per mg of particles) for bc2, and PFK15 was determined using BCA assay, and absorbance spectrophotometer (plate reader), respectively (Table 1). Moreover, the release of PFK15 were studied using a plate reader, and it was determined that the polymeric particles released the drug in a sustained manner over a period of 30 days.

[2] = tested on: glycolysis (ECAR) in BMDCs; assay: Extracellular flux assay (ECAR); format: cell-based
Protocol: Reduction in CD86 expression by inhibiting glycolysis in DCs can affect pro-inflammatory DC activation in the presence of lipopolysaccharide (LPS), which is used to mimic inflammation in vitro (FIG. 5A). Therefore, it was tested if PFK15 by itself can block glycolysis in bone marrow-derived DCs (BMDCs) in the presence or absence of LPS. To assess this, the extracellular acidification rate (ECAR) of BMDCs was determined by extracellular flux assays. BMDCs treated with LPS only and no treatment were used as controls.
To test this, extracellular flux assays were used, and pre-activated DCs with LPS and no treatment were used as controls.

BMDCs = assay: CD86 / MHCII expression in BMDCs by flow cytometry; format: cell-based
Protocol: Next, it was assessed if the changes in BMDC glycolytic rates can affect surface co-stimulatory CD86 expression in BMDCs, using flow cytometry. In this study, pro-inflammatory DCs were defined as the frequency of […].
Since DCs indeed phagocytose paKG-based MPs in vivo, it was hypothesized that the observed reduction in paw swelling in the CIA mice treated with paKG(PFK15+bc2) MPs, may be due to the paKG(PFK15+bc2) MPs modulating DC function (FIG. 8A). Therefore, first effect of paKG(PFK15+bc2) MPs on in vitro cultured BMDCs in the form of altered CD86, MHCII, IL-10, IL-12p70 and TNFα expression in CD11c^+ cells was tested.

[3] = Encapsulation efficiency and loading (BCA assay, absorbance spectrophotometer); format: physicochemical; conditions: for % EE: Table 1, encapsulated in paKG particles; for % loading: Table 1, μg of drug per mg of particles
Protocol: In one embodiment, the metabolite-based polymer or polymeric particle has at least one of high loading and high encapsulation efficiency of the at least one therapeutic agent. Encapsulation efficiency is the percentage of drug that is successfully entrapped into a polymeric particle. In one embodiment, encapsulation efficiency (% EE) is calculated by (total drug added—free non-entrapped drug) divided by the total drug added. Loading capacity is the amount of drug loaded per unit weight of a polymeric particle, indicating the percentage of mass of the polymeric particle that is due to the encapsulated drug. In one embodiment, loading capacity (% LC) can be calculated by the amount of total entrapped drug divided by the total polymeric particle weight. In one embodiment, the polymeric particle has about 50% to about 100% encapsulation efficiency of the at least one therapeutic agent. In one embodiment, the polymeric particle has about 60% to about 100% encapsulation efficiency of the at least one therapeutic agent.
as §1

[4] = with and without LPS, vs LPS and no treatment

Compound	period of sustained release of PFK15 [1] [days]	lowering of glycolysis (ECAR) ([2]; in the presence of LPS, vs LPS alone) [%]	ECAR in BMDCs ([2]; without LPS, vs no treatment)	frequency of pro-inflammatory BMDC populations (BMDCs; in the absence of LPS, vs no treatment)	decrease of frequency of CD86+MHCII+ of CD11c+ BMDCs (BMDCs; in the presence of LPS, vs LPS)	CD86 expression in CD11c+ cells (BMDCs; [4])	anti-inflammatory BMDC populations (BMDCs; [4])	% EE [3] [%]	% loading [3] [µg/mg]	percentage encapsulation efficiency of PFK15 within paKG MPs ([3]; paKG(PFK15) MPs) [%]	percentage loading efficiency of PFK15 ([3]; per mg of paKG MPs) [µg/mg]	percentage encapsulation efficiency of bc2 ([3]; paKG(PFK15+bc2) MPs)	percentage loading efficiency of bc2 ([3]; per mg of MPs, paKG(PFK15+bc2) MPs) [µg/mg]
O=C(C=Cc1ccc2ccccc2n1)c1ccncc1 [PFK15, 1-(4-pyridinyl)-3-(2-quinolinyl)-2-propen-1-one]	30	60	did not significantly reduce ECAR	significantly decreased	approximately 8 fold	reduced CD86 expression	did not significantly decrease	68	1.7	68±17	2 ± 1		
bc2: bovine collagen type II (bc2) antigen								60	3			60 % (wt/wt)	3
